Experiments:
Assay in all cases: In situ competitive SILAC profiling with A-DA probe in (PMA-stimulated) A549 cells
Conditions in all cases: A549 cells, A-DA probe
[1] = target: T1, A-DA lipid probe targets in A549 cells (Homo sapiens, UniProt Q8NF37)
T1 sequence (Q8NF37 1-534): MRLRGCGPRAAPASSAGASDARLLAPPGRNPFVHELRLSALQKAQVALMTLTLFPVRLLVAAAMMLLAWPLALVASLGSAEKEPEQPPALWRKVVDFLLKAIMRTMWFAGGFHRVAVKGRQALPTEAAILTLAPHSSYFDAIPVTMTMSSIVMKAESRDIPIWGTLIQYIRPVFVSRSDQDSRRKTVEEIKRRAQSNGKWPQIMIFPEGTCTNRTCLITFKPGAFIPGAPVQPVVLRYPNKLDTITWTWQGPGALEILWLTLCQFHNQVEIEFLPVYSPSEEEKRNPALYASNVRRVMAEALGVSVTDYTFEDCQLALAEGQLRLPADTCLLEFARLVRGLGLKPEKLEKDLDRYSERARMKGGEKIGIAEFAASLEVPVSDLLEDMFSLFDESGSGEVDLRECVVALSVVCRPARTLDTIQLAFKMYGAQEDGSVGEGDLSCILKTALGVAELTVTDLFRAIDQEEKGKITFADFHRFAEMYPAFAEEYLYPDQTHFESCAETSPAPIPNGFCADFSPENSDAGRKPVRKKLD

[2] = target: T2, A-DA lipid probe targets in A549 cells (Homo sapiens, UniProt Q86XL3)
T2 sequence (Q86XL3 1-938): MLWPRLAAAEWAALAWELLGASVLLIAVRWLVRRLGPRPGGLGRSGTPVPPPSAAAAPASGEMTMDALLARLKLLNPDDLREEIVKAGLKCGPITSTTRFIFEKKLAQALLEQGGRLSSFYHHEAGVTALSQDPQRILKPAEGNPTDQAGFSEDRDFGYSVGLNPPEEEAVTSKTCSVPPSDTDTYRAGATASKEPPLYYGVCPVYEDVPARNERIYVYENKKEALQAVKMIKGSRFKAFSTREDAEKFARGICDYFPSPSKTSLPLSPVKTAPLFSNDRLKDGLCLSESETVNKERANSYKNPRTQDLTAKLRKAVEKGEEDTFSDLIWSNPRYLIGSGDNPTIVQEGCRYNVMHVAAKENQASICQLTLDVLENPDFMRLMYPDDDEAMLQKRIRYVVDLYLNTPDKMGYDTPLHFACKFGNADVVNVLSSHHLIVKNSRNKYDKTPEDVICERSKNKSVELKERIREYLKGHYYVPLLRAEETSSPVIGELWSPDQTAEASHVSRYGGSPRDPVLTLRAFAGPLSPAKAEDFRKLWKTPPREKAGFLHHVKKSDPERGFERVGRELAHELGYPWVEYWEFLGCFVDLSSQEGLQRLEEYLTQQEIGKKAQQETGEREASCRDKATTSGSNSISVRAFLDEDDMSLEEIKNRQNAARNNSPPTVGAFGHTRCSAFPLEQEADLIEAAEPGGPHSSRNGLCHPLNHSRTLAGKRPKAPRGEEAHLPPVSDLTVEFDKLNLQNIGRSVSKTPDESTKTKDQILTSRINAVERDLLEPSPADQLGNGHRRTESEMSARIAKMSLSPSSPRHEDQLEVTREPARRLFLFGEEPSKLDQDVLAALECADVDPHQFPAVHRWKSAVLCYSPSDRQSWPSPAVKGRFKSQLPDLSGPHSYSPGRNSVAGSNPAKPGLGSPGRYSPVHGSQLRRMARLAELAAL

[3] = target: T3, A-DA lipid probe targets in A549 cells (Homo sapiens, UniProt Q15738)
T3 sequence (Q15738 1-373): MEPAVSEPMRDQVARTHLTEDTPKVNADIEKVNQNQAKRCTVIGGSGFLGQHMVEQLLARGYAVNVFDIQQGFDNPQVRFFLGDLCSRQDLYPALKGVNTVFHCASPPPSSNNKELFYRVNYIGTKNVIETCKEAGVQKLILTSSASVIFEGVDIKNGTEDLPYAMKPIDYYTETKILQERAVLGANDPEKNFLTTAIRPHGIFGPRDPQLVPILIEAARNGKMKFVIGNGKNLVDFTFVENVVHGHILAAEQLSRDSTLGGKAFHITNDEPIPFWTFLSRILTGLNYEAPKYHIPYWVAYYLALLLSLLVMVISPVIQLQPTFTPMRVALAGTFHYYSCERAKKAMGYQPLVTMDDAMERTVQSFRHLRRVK

[4] = target: T4, A-DA lipid probe targets in A549 cells (Homo sapiens, UniProt P07602)
T4 sequence (P07602 60-524): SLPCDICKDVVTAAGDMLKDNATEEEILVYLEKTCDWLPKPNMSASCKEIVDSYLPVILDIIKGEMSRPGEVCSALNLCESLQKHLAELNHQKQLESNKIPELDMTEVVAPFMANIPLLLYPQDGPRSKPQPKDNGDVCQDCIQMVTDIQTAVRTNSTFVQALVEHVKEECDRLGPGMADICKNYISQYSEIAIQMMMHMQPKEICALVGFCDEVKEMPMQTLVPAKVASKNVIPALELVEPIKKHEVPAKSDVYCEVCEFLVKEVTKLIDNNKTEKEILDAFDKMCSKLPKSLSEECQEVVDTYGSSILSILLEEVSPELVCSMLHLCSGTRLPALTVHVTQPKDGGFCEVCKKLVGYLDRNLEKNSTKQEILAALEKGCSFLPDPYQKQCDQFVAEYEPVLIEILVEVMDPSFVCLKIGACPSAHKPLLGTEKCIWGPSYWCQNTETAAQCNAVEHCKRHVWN

SMILES | SILAC ratio, LPCAT1 (Q8NF37) ([1]; competitor 25 μM) | SILAC ratio, ANKLE2 (Q86XL3) ([2]; competitor 25 μM) | SILAC ratio, NSDHL (Q15738) ([3]; competitor 25 μM) | SILAC ratio, PSAP (P07602) ([4]; competitor 25 μM) | SILAC ratio, LPCAT1 (Q8NF37) ([1]; competitor 5 μM) | SILAC ratio, LPCAT1 (Q8NF37) ([1]; competitor 50 μM) | SILAC ratio, ANKLE2 (Q86XL3) ([2]; competitor 5 μM) | SILAC ratio, ANKLE2 (Q86XL3) ([2]; competitor 50 μM) | SILAC ratio, NSDHL (Q15738) ([3]; competitor 5 μM) | SILAC ratio, NSDHL (Q15738) ([3]; competitor 50 μM) | SILAC ratio, PSAP (P07602) ([4]; competitor 5 μM) | SILAC ratio, PSAP (P07602) ([4]; competitor 50 μM)
O=C(/C=C/c1cccnc1)NCCCCC1CCN(C(=O)c2ccccc2)CC1 [FK-866, reference compound] | 1.4 | 1.3 | 1.4 | 1.2 | – | – | – | – | – | – | – | –
C=CCN(C)CCCCCCOc1ccc(C(=O)c2ccc(Br)cc2)c(F)c1 [Ro488071] | – | – | – | – | 1.6 | 3.1 | 1.7 | 3.1 | 1.5 | 2.5 | 2.3 | 3.1

— US10168342B2, “Lipid probes and uses thereof” (THE SCRIPPS RESEARCH INSTITUTE, priority 2015, dated 2019)
